# Reference: patent publication US20220289794A1, “SYNTHETIC ANTIMICROBIAL PEPTIDES” (priority 2019, published 2022)
# Read-outs that look alike come from different tables or passages of the source. Non-standard residues stand in square brackets, D forms with d. Residues, ends and D or L forms follow the SMILES beside them. 2Nal = N[C@@H](Cc1ccc2ccccc2c1)C(=O)O
# Tests used:
# [1] = tested on: Escherichia coli (E. Coli, ATCC 25922); conditions: Escherichia coli (ATCC 25922); antibiotic alone
# B. subtilis (ATCC-6633) = test: Broad-spectrum activity against Gram-Positive bacteria (MIC); assay type: cell-based; set-up: unit not given here
# E. coli (ATCC BAA-2452) = test: Broad-spectrum activity against Gram-Negative bacteria (MIC); assay type: cell-based; conditions: Table 16, Gram-negative panel
# B. cereus (ATCC-13061) = test: Broad-spectrum activity against Gram-Positive bacteria (MIC); assay type: cell-based; set-up: unit not given here
# [2] = tested on: A. baumannii (ATCC BAA-1605); test: Broad-spectrum activity against Gram-Negative bacteria (MIC); assay type: cell-based; conditions: Table 16, Gram-negative panel
# [3] = tested on: P. aeruginosa (ATCC 10145); test: as above; assay type: cell-based; conditions: Table 16, Gram-negative panel
# [4] = tested on: P. aeruginosa (ATCC BAA-1744); test: as above; assay type: cell-based; conditions: Table 16, Gram-negative panel
# [5] = tested on: Methicillin-resistant Staphylococcus aureus MRSA (ATCC BAA-1556); conditions: ATCC BAA-1556
# S. aureus ATCC 29213 = conditions: ATCC 29213
# [6] = tested on: Pseudomonas aeruginosa (ATCC 27883); conditions: ATCC 27883
# [7] = tested on: Escherichia coli (ATCC 25922); conditions: ATCC 25922
# [8] = tested on: Klebsiella pneumoniae (ATCC BAA-1705); conditions: Table 16, Gram-negative panel
# human red blood cells = tested on: human red blood cells; set-up: unit not given beside the values
# [9] = tested on: Enterococcus faecium ATCC 27270; conditions: E. faecium ATCC 27270
# [10] = tested on: Enterococcus faecium ATCC 700221; conditions: E. faecium ATCC 700221
# [11] = tested on: Klebsiella pneumoniae ATCC 13883; conditions: Table 16, Gram-negative panel
# [12] = tested on: Enterococcus faecalis ATCC 29212; conditions: E. faecalis ATCC 29212
# [13] = tested on: Enterococcus faecalis ATCC 51575; conditions: E. faecalis ATCC 51575
# [14] = tested on: Streptococcus pneumoniae ATCC 49619; conditions: S. pneumoniae ATCC 49619
# [15] = tested on: Streptococcus pneumoniae ATCC 51938; conditions: S. pneumoniae ATCC 51938
# [16] = tested on: Methicillin-resistant Staphylococcus aureus MRSA (ATCC BAA-1556); test: microbe, parasite or virus in culture; conditions: ATCCBAA1556|MRSA, 24 h
# [17] = tested on: Pseudomonas aeruginosa (PSA, ATCC 27883); test: microbe, parasite or virus in culture; conditions: ATCC27883, 24 h
# [18] = tested on: Klebsiella pneumoniae (KPC, ATCC BAA-1705); test: microbe, parasite or virus in culture; conditions: ATCCBAA1705, 24 h
# [19] = tested on: Escherichia coli (E. Coli, ATCC 25922); test: microbe, parasite or virus in culture; conditions: ATCC25922, 24 h
compound,measurement,setting,value
"O=C(O)c1cn(C2CC2)c2cc(N3CCNCC3)c(F)cc2c1=O [Ciprofloxacin, reference compound]",MIC of antibiotic,[1],64 µg/mL
"N=C(N)NCCC[C@@H]1NC(=O)[C@H](CCCNC(=N)N)NC(=O)[C@H](Cc2ccc3ccccc3c2)NC(=O)[C@H](Cc2ccc3ccccc3c2)NC(=O)[C@H](CCCNC(=N)N)NC(=O)[C@H](CCCNC(=N)N)NC(=O)[C@H](Cc2ccc3ccccc3c2)NC1=O [IFX-018, c[Arg-NaI-Arg-Arg-NaI-NaI-Arg]] (cyclo(R[2Nal]RR[2Nal][2Nal]R))",Broad-spectrum activity B. subtilis (ATCC-6633),B. subtilis (ATCC-6633),1.5
same,MIC E. coli (ATCC BAA-2452),E. coli (ATCC BAA-2452),12.5 µg/mL
same,Broad-spectrum activity B. cereus (ATCC-13061),B. cereus (ATCC-13061),3.1
same,MIC A. baumannii (ATCC BAA-1605),[2],6.2 µg/mL
same,MIC P. aeruginosa (ATCC 10145),[3],50 µg/mL
same,MIC P. aeruginosa (ATCC BAA-1744),[4],25 µg/mL
same,MIC MRSA ATCC BAA-1556,[5],6.2 µg/mL
same,MIC S. aureus ATCC 29213,S. aureus ATCC 29213,6.2 µg/mL
same,MIC P. aeruginosa ATCC 27883,[6],>100 µg/mL
same,MIC E. coli ATCC 25922,[7],25 µg/mL
same,MIC K. pneumonia (ATCC BAA-1705),[8],25 µg/mL
same,HC50,human red blood cells,300
same,Broad-spectrum activity E. faecium (ATCC 27270),[9],1.5
same,Broad-spectrum activity E. faecium (ATCC 700221),[10],1.5
same,MIC K. pneumonia (ATCC 13883),[11],50 µg/mL
same,Broad-spectrum activity E. faecalis (ATCC 29212),[12],6.2
same,Broad-spectrum activity E. faecalis (ATCC 51575),[13],12.5
same,Broad-spectrum activity S. pneumoniae (ATCC 49619),[14],25
same,Broad-spectrum activity S. pneumoniae (ATCC 51938),[15],12.5
"N=C(N)NCCC[C@@H]1NC(=O)[C@H](CCCNC(=N)N)NC(=O)[C@H](Cc2ccc3ccccc3c2)NC(=O)[C@H](Cc2ccc3ccccc3c2)NC(=O)[C@H](CCCNC(=N)N)NC(=O)[C@H](CCCNC(=N)N)NC(=O)[C@H](Cc2ccc3ccccc3c2)NC1=O [IFX-019, c[Arg-Arg-NaI-NaI-Arg-Arg-NaI]] (cyclo(R[2Nal]RR[2Nal][2Nal]R))",Broad-spectrum activity B. subtilis (ATCC-6633),B. subtilis (ATCC-6633),1.5
same,MIC E. coli (ATCC BAA-2452),E. coli (ATCC BAA-2452),6.2 µg/mL
same,Broad-spectrum activity B. cereus (ATCC-13061),B. cereus (ATCC-13061),1.5
same,MIC A. baumannii (ATCC BAA-1605),[2],12.5 µg/mL
same,MIC P. aeruginosa (ATCC 10145),[3],25 µg/mL
same,MIC P. aeruginosa (ATCC BAA-1744),[4],12.5 µg/mL
same,MIC MRSA ATCC BAA-1556,[5],6.2 µg/mL
same,MIC S. aureus ATCC 29213,S. aureus ATCC 29213,6.2 µg/mL
same,MIC P. aeruginosa ATCC 27883,[6],50 µg/mL
same,MIC E. coli ATCC 25922,[7],50 µg/mL
same,MIC K. pneumonia (ATCC BAA-1705),[8],25 µg/mL
same,HC50,human red blood cells,325
same,Broad-spectrum activity E. faecium (ATCC 27270),[9],1.5
same,Broad-spectrum activity E. faecium (ATCC 700221),[10],1.5
same,MIC K. pneumonia (ATCC 13883),[11],50 µg/mL
same,Broad-spectrum activity E. faecalis (ATCC 29212),[12],3.1
same,Broad-spectrum activity E. faecalis (ATCC 51575),[13],6.2
same,Broad-spectrum activity S. pneumoniae (ATCC 49619),[14],25
same,Broad-spectrum activity S. pneumoniae (ATCC 51938),[15],12.5
Cc1ncc([N+](=O)[O-])n1CCO [Metronidazole],MIC,"[16]; read-out: MRSA (ATCC BAA-1556) MIC, Table 28, IFX-031, antibiotics alone and PHY-MIX (1:1 w/w)",> 32 µg/mL
same,MIC,"[16]; read-out: MRSA (ATCC BAA-1556) MIC, Table 31, [R5W4] (IFX-301), antibiotics alone and PHY-MIX (1:1 w/w)",> 32 µg/mL
same,MIC,"[17]; read-out: Pseudomonas aeruginosa (ATCC 27883) MIC, Table 29, [R6W4] (IFX-318), antibiotics alone and PHY-MIX (1:1 w/w)",> 32 µg/mL
same,MIC,"[17]; read-out: Pseudomonas aeruginosa (ATCC 27883) MIC, Table 30, [R5W4K] (IFX-315), antibiotics alone and PHY-MIX (1:1 w/w)",> 32 µg/mL
same,MIC,"[18]; read-out: Klebsiella pneumoniae (ATCC BAA-1705) MIC, Table 28, IFX-031, antibiotics alone and PHY-MIX (1:1 w/w)",> 32 µg/mL
same,MIC,"[18]; read-out: Klebsiella pneumoniae (ATCC BAA-1705) MIC, Table 29, [R6W4] (IFX-318), antibiotics alone and PHY-MIX (1:1 w/w)",> 32 µg/mL
same,MIC,"[18]; read-out: Klebsiella pneumoniae (ATCC BAA-1705) MIC, Table 30, [R5W4K] (IFX-315), antibiotics alone and PHY-MIX (1:1 w/w)",> 32 µg/mL
same,MIC,"[18]; read-out: Klebsiella pneumoniae (ATCC BAA-1705) MIC, Table 31, [R5W4] (IFX-301), antibiotics alone and PHY-MIX (1:1 w/w)",> 32 µg/mL
same,MIC,"[19]; read-out: Escherichia coli (ATCC 25922) MIC, Table 28, IFX-031, antibiotics alone and PHY-MIX (1:1 w/w)",> 32 µg/mL
same,MIC,"[19]; read-out: Escherichia coli (ATCC 25922) MIC, Table 29, [R6W4] (IFX-318), antibiotics alone and PHY-MIX (1:1 w/w)",> 32 µg/mL
same,MIC,"[19]; read-out: Escherichia coli (ATCC 25922) MIC, Table 30, [R5W4K] (IFX-315), antibiotics alone and PHY-MIX (1:1 w/w)",> 32 µg/mL
same,MIC,"[19]; read-out: Escherichia coli (ATCC 25922) MIC, Table 31, [R5W4] (IFX-301), antibiotics alone and PHY-MIX (1:1 w/w)",> 32 µg/mL
N=C(N)NCCC[C@@H]1NC(=O)[C@H](CCCNC(=N)N)NC(=O)[C@H](Cc2c[nH]c3ccccc23)NC(=O)[C@H](Cc2c[nH]c3ccccc23)NC(=O)[C@H](Cc2c[nH]c3ccccc23)NC(=O)[C@H](CCCNC(=N)N)NC1=O [[R3W3] (IFX-302)] (cyclo(WWWRRR)),MIC MRSA ATCC BAA-1556,MRSA,16 µg/mL
same,MIC Klebsiella pneumoniae (ATCC BAA-1705),KPC,64 µg/mL
same,MIC Pseudomonas aeruginosa (ATCC 27883),PSA,128 µg/mL
same,MIC Escherichia coli (ATCC 25922),E. coli,32 µg/mL
N=C(N)NCCC[C@@H]1NC(=O)[C@H](CCCNC(=N)N)NC(=O)[C@H](CCCNC(=N)N)NC(=O)[C@H](Cc2c[nH]c3ccccc23)NC(=O)[C@H](Cc2c[nH]c3ccccc23)NC(=O)[C@H](Cc2c[nH]c3ccccc23)NC(=O)[C@H](Cc2c[nH]c3ccccc23)NC(=O)[C@H](CCCNC(=N)N)NC1=O [[R4W4] (IFX-326)] (cyclo(RRRRWWWW)),MIC MRSA ATCC BAA-1556,MRSA,4 µg/mL
same,MIC Klebsiella pneumoniae (ATCC BAA-1705),KPC,32 µg/mL
same,MIC Pseudomonas aeruginosa (ATCC 27883),PSA,64 µg/mL
same,MIC Escherichia coli (ATCC 25922),E. coli,16 µg/mL
N=C(N)NCCC[C@@H]1NC(=O)[C@H](CCCNC(=N)N)NC(=O)[C@H](CCCNC(=N)N)NC(=O)[C@H](Cc2c[nH]c3ccccc23)NC(=O)[C@H](Cc2c[nH]c3ccccc23)NC(=O)[C@H](Cc2c[nH]c3ccccc23)NC(=O)[C@H](Cc2c[nH]c3ccccc23)NC(=O)[C@H](CCCNC(=N)N)NC(=O)[C@H](CCCNC(=N)N)NC1=O [[R5W4] IFX-301],MIC,KPC,32 µg/mL
same,MIC,PSA,32 µg/mL
same,MIC,E. coli,16 µg/mL
N=C(N)NCCC[C@@H]1NC(=O)[C@H](CCCNC(=N)N)NC(=O)[C@H](CCCNC(=N)N)NC(=O)[C@H](Cc2c[nH]c3ccccc23)NC(=O)[C@H](Cc2c[nH]c3ccccc23)NC(=O)[C@H](Cc2c[nH]c3ccccc23)NC(=O)[C@H](Cc2c[nH]c3ccccc23)NC(=O)[C@H](Cc2c[nH]c3ccccc23)NC(=O)[C@H](CCCNC(=N)N)NC(=O)[C@H](CCCNC(=N)N)NC1=O [[R5W5] (IFX-314)] (cyclo(RRRRRWWWWW)),MIC MRSA ATCC BAA-1556,MRSA,4 µg/mL
same,MIC Klebsiella pneumoniae (ATCC BAA-1705),KPC,32 µg/mL
same,MIC Pseudomonas aeruginosa (ATCC 27883),PSA,32 µg/mL
same,MIC Escherichia coli (ATCC 25922),E. coli,16 µg/mL
